From paper PMC12212008 (Drug Design, Development and Therapy, 2025)

Columns and labels:
p53-Y220C mutant = conditions: covalent, targets Cys220; cited from earlier work
T-p53C-Y220C [1] = molecular target: T1, T-p53C-Y220C (Homo sapiens, UniProt P04637, M133L/N239Y/N268D/V203A/Y220C); test: DSF thermal shift of T-p53C-Y220C; type: binding; conditions: for T-p53C-Y220C ∆Tm ± SD, concentration-dependent DSF: 1000 µM
T-p53C-Y220C [2] = molecular target: T1, T-p53C-Y220C; test: Intact protein mass spectrometry of T-p53C-Y220C; type: binding; conditions: protein-to-compound ratio 1:100, 24 h, 20 °C

T-p53C-Y220C ∆Tm ± SD (T-p53C-Y220C [1]; 250 µM, 24 h, 20 °C) | incubation time at which ∆Tm of T-p53C-Y220C plateaued / reached maximum (T-p53C-Y220C [1]; 1 mM, 20 °C, time-dependent DSF) | T-p53C-Y220C ∆Tm, time-dependent DSF (T-p53C-Y220C [1]; 1 mM, 10 min incubation, 20 °C) | T-p53C-Y220C ∆Tm ± SD, concentration-dependent DSF (T-p53C-Y220C [1]; 30 min) | T-p53C-Y220C ∆Tm ± SD (T-p53C-Y220C [1]; 1 mM, 30 min, 20 °C) | T-p53C-Y220C ∆Tm ± SD, concentration-dependent DSF (T-p53C-Y220C [1]; 24 h) | arylated T-p53C-Y220C protein species detected by intact MS (T-p53C-Y220C [2]) | Compound | increase of Tm of the Y220C mutant (p53-Y220C mutant)
– | – | – | – | – | – | – | C=C(C)C(=O)n1cc(C)c2c(-c3ccc4c(c3)CCN(C)C4)cncc21 [KG13] | levels comparable to those of the WT protein
2.87 °C | about 2 h | 2.30 °C | 2.65 °C | 2.75 °C | 3.55 °C | three, four, or five times | N#Cc1cnc(Cl)cn1 [SN006/7-3, 5-chloro-pyrazine-2-carbonitrile] | –
